Measurements taken from PMC7595621, “Quorum sensing N-Acyl homoserine lactones are a new class of anti-schistosomal” (PLoS Neglected Tropical Diseases, 2020).
Values after ≈ are worked out from the molar mass of the structure shown.

How the values were obtained:
E. coli ATCC 25922 = assay: Broth microdilution MIC and IC50 determination, E. coli; type: cell-based; conditions: Escherichia coli; for MIC: ATCC25922, 24 h, 24 hr
Protocol: S. aureus ATCC 29213 and E. coli ATCC 25922 were cultured in Luria-Bertani (LB) medium at 37°C with aeration at 200 rpm for 24 hr, with all procedures performed in a biosafety level 2 (BSL2) cabinet. Stationary phase cultures were then used for minimum inhibitory concentration (MIC) determination using the broth microdilution method, in fresh LB medium, in a 96-well plate. All compounds were tested in triplicate using an initial bacterial concentration of 5.0 × 10^5 colony forming units (CFU)/mL at a final concentration of 125 mg/L (5% and 2.5% v/v methanol). Compounds with no visible growth at 125 mg/L were further evaluated with progressing dilutions. […] Dilutions were repeated in three independent experiments where the optical density (OD600) was measured in a Hidex plate spectrophotometer and absorbance data used for the calculation of an IC50 value. The IC50 value was obtained from a dose response titration (125–0.09 mg/L). Dose response curves were obtained by non-linear regression, after log transformation of concentrations and data normalization using GraphPad Prism 7.02.
As Compound 1 was structurally similar to N-acyl homoserine lactones, a compound class involved in bacterial quorum sensing, we decided to assess its antimicrobial activity and determine if enantiomer separation or lactone ring substitution would change this activity.

HepG2 cells = assay: Cell cytotoxicity assay (MTT); type: cell-based, human; conditions: 24 hr
Protocol: (§2) The cytotoxicity of each compound was assessed on human HepG2 cells as described previously [17]. Briefly, 2 x 10^4 cells/well were seeded in black walled 96-well microtiter plates (Fisher Scientific, Loughborough, UK) and incubated for 24 hr at 37°C in a humidified atmosphere containing 5% CO2. […] Following a further incubation for 24 hr, the MTT assay was performed as previously described [17, 27]. Dose response curves were obtained by non-linear regression, after log transformation of concentrations and data normalization using GraphPad Prism 7.02.

[1] = Cell cytotoxicity assay (MTT); type: cell-based, human; conditions: human, HepG2 cells, MTT, 95% confidence interval, called EC50
Protocol: as §2

[2] = tested on: juvenile S. mansoni worms; assay: Screening of juvenile S. mansoni blood flukes (3-week worms), motility scoring; type: cell-based, Schistosoma mansoni; conditions: for Selectivity index, juvenile worm: HepG2 CC50 / juvenile worm EC50; for EC50: Schistosoma mansoni, 3-week worms, motility scores, read-out: JUVENILE WORM EC50
Protocol: (§1) Juvenile S. mansoni parasites were recovered via hepatic portal vein perfusion from TO outbred mice (HsdOla:TO, Tuck-Ordinary, Envigo, UK) that were infected percutaneously three weeks earlier with 4000 cercariae. Preparation and centrifugation of juvenile worms have been described previously. […] After motility quantification, 2 μg/mL of PI was added to each well and the plate returned to 37°C, 5% CO2 for 15 minutes. Each well was subsequently imaged on the Roboworm platform using brightfield and fluorescent microscopy (excitation wavelength = 580 nm; emission wavelength = 604 nm). The number of PI positive vs PI negative juvenile worms were cross-checked with the motility scores obtained by our scoring matrix, and the data reported as percentage of PI positive across all parasites within the well. EC50 values were calculated from the motility scores obtained from the dose response titration (as detailed above) and dose response curves were obtained by non-linear regression, after log transformation of concentrations and data normalization using GraphPad Prism 7.02.
Fig 4 Three week juvenile worms are immobilised by N-Acyl homoserine lactones. Three-week old juvenile S. mansoni worms (n = 13–33 per well) were co-cultured with compounds (1) and (3) at concentrations spanning 15 μM—0.23 μM for 72 hrs at 37°C in a humidified atmosphere containing 5% CO2. Parasite motility was scored between 0–4 (0 = no movement/dead, 4 = full movement/healthy). […] A) Effect of compound (1) on juvenile worm motility. (B) Effect of compound (3) on juvenile worm motility. p values are indicated as follows: * <0.05, ** <0.01, *** <0.001.

[3] = tested on: juvenile S. mansoni worms; assay: Propidium iodide (PI) staining of juvenile S. mansoni worms; type: cell-based, Schistosoma mansoni; conditions: 72 hrs
Protocol: as §1
Three week juvenile schistosomes, incubated with compounds (1), (3) or controls for 72 hrs, were subsequently cultured with PI at a final concentration of 2 μg/mL for 15 minutes at 37 °C in an environment containing 5% CO2. PI positive parasites (dead) were counted and the percent live vs dead in each well is indicated. A) Quantification of compound (1) mediated juvenile death. B) Quantification of compound (3) mediated juvenile death.

SMILES	MIC (E. coli ATCC 25922; no visible growth) [µg/mL]	MIC (E. coli ATCC 25922; value in square brackets) [µM]	IC50 (E. coli ATCC 25922; ATCC25922, Table 3, OD600, three independent experiments, 95% confidence interval in parentheses) [µg/mL]	fold increase in HepG2 cytotoxicity in comparison to compound 1 (HepG2 cells) [fold]	CC50 at 24 h [1] [µM]	complete immobility of juvenile worms observed down to ([2]; 72 hr) [µM]	Selectivity index, juvenile worm [2]	EC50 ([2]; 72 hr) [µM]	100% of the parasites PI positive down to concentration [3] [µM]	significant effect on juvenile worm motility down to ([2]; 72 hr) [µM]	Percent P.I positive parasites ([3]; 3.75 μM) [%]	Percent P.I positive parasites ([3]; 7.5 μM) [%]	Percent P.I positive parasites ([3]; 15 μM) [%]
O=C(CBr)NC1CCSC1=O (stereo not drawn) [Compound 3, 2-bromo-N-(2-oxotetrahydrothiophen-3-yl)acetamide]	62.5	262	52.7 (≈ 221 µM)	2.3	18.7	0.94	37.4	0.5	0.94	–	–	–	–
O=C(CBr)NC1CCOC1=O (stereo not drawn) [Compound 1, 2-bromo-N-(2-oxotetrahydrofuran-3-yl)acetamide]	125	563	–	–	43.5	–	10.1	4.3	–	7.5	13.3	100	100
